Measurements as given in patent publication US7125559B2, “Cosmetic or dermatological composition comprising a combination of an elastase inhibitor of the N-acylaminoamide family and at least one myorelaxing agent” (L'Oreal, priority 2001, dated 2006).

Legend:
[1] = system: surviving human skins treated with human leukocyte elastase (HLE); test: ex vivo activity on human skin fragments kept in survival 10 days with HLE, morphometry of elastin fibres (Example 5); details: three donors, mean; HLE 0.5 μg/ml + 5 μl compound at 0.2% in ethanol every two days, 10 days at 37° C.; HLE alone 5.1%, untreated 7.4%
Protocol: (§1) The ex vivo activity of the compound of Example 2 was evaluated on surviving human skins treated with human leukocyte elastase (HLE).
(§2) The test was performed in the following manner:
Fragments of normal human skin derived from three different donors are deposited in inserts placed in culture wells. Culture medium supplemented with antibiotics is added to the bottom of the wells. Passage by slow diffusion occurs between the two compartments through the intermediary of a porous membrane (pore size: 12 μm).
(§3) The culture medium is renewed every three days.
Optionally 0.5 μg of HLE per ml of culture medium is added to the skin fragments.
5 μl of test compound previously dissolved at 0.2% by weight in ethanol are also added every two days.
The skins are maintained in survival for 10 days at 37° C.,
(§4) The elastin fibres are stained blue with (+) catechol and quantified morphometrically by computer-assisted image analysis. The mean percentage dermal surface area occupied by the elastin fibres was thus evaluated.

[2] = biological target: T1, human leukocyte elastase (HLE) (Homo sapiens, UniProt P08246); test: anti-elastase activity in vitro against human leukocyte elastase (HLE), substrate Me-OSAAPV-p-NA, spectrophotometry; type: biochemical
T1 sequence (P08246 30-267): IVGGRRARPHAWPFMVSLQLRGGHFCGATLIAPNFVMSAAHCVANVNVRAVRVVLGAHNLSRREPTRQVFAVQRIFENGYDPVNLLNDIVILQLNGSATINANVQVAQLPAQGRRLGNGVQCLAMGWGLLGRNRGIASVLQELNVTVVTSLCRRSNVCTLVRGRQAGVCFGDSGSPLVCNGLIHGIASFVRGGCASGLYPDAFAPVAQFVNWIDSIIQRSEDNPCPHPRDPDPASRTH
Protocol: The anti-elastase activity of compounds according to the invention was determined in vitro against human leukocyte elastase (HLE)
as §2
A substrate Me-OSAAPV-p-NA (methyl-O-succinate alanine alanine proline valine-p-nitroanilide) to which is added the HLE (40 milliunits per ml) and 0.1% of the test compound is incubated at 37° C. for 60 minutes.
The % of inhibition of the elastase activity tested is then determined by spectrophotometry.
In the same manner the % of inhibition of the control elastase activity was determined for the compound A at different concentrations

[3] = system: surviving human skins treated with human leukocyte elastase (HLE); test: ex vivo activity on fresh sections of surviving human skins treated with HLE, morphometry of elastin fibres (Example 4); details: HLE 10 μg/ml + 0.1% test compound, 2 hours at 20° C.
Protocol: as §1
(§5) The test is performed in the following manner:
Fresh sections of human skins derived from 2 different donors are treated for 2 hours at 20° C. with 20 μl of buffer solution (pH 7.4) containing optionally 10 μg/ml of HLE and optionally 0.1% of the test compound, optionally previously dissolved in ethanol.
The elastin fibres are stained blue with (+) catechol and quantified morphometrically by computer-assisted image analysis. The percentage of mean dermal surface occupied by the elastin fibres is thus evaluated

[4] = system: surviving human skins irradiated by UVA; test: activity on surviving human skins irradiated by UVA (8 J/cm2), morphometry of elastin fibres and collagen (Example 6); details: UVA 8 J/cm2 + 5 μl compound at 0.2% in ethanol every two days, 7 days at 37° C.
Protocol: The activity of the compound of Example 2 was evaluated on irradiated surviving human skins irradiated by UVA (8 J/cm2).
as §5
Fragments of normal human skin derived from four different donors are deposited in inserts placed in culture wells. Culture medium supplemented with antibiotics is added to the bottom of the wells. Passage by slow diffusion occurs between the two compartments through the intermediary of a porous membrane (pore size: 12 μm).
as §3
Every two days 5 μl of the test compound previously dissolved at 0.2% in ethanol are added to the skin fragments.
The skins are maintained in survival for 7 days at 37° C.
The skins are irradiated once only at 8 J/cm2 (Vilbert-Lourmat RMX-3W lamp).
as §4

Structure (SMILES) | % surface occupied by elastin fibres [1] [%] | inhibition of the elastase activity (in words) ([2]; even at low concentration) | % surface occupied by elastin fibres ([3]; Skin 1, HLE alone 4.85%, untreated 12.7%) [%] | % surface occupied by elastin fibres ([3]; Skin 2, HLE alone 6.85%, untreated 15.25%) [%] | Morphometric analysis of elastin fibres (superficial dermis) ([4]; UVA alone 3.9%, untreated 6.75%) [%] | Morphometric analysis of collagen (superficial dermis) ([4]; UVA alone 81%, untreated 87%) [%] | % inhibition of elastase activity tested ([2]; compound concentration 0.1%, HLE 40 milliunits per ml, 37° C., 60 minutes) [%]
CC(=O)N(c1cccc(C(F)(F)F)c1)C(C(=O)NCC(=O)O)C(C)C (stereo not shown) [Compound A, {2-[acetyl-(3-trifluoromethyl-phenyl)-amino]-3-methyl-butyrylamino}acetic acid] | 7.1 | strong inhibition | 13.95 | 11.85 | 6.8 | 92 | 
CCOC(=O)CNC(=O)C(C(C)C)N(Cc1ccccc1)C(=O)CP(=O)(OCC)OCC (stereo not shown) [Compound B, (2-{benzyl-[(diethoxy-phosphoryl)-acetyl]-amino}-3-methyl-butyrylamino) ethyl acetate] |  |  |  |  |  |  | 17
